Read-outs that look alike come from different tables or passages of the source. Where no end group is shown, it is not given here.
Tests used:
[1] = test system: HCAVSMCs, HMVECs, RAW 264.7, MCF7, and HEK 293T cells; assay: Polymer dose-dependent YARA-MK2i uptake in five cell types; settings: co-delivery with 2–5 µM PPAA; all five cell lines; flow cytometry
Experimental: (§1) Cells were treated as defined in the following sections in Opti-MEM medium supplemented with 1% penicillin-streptomycin and 1% FBS. For all flow cytometry assays, following treatment or post-treatment incubation, cells were washed 2× in PBS without calcium or magnesium, harvested with 0.05% trypsin-EDTA, centrifuged, resuspended in 300 µL of 0.05% Trypan blue in PBS without calcium or magnesium, and transferred to a 96-well plate for analysis on an EMD Millipore Guava easyCyte™ 5HT flow cytometer with InCyte software for data acquisition. […] All samples were run in triplicate. All flow cytometric uptake data are presented as fold increase in peptide, vivo-morpholino, or nanoparticle uptake relative to treatment with an equivalent dose of the corresponding fluorescently labeled peptide, vivo-morpholino, or nanoparticle formulation alone. Absolute fluorescence data of peptide uptake is shown in the supplement (Supplementary Figs. 4 and 7).
(§2) Cells were then treated with each formulation for 30 min.

[2] = test system: human coronary artery vascular smooth muscle cells (HCAVSMCs); assay: Flow cytometric uptake and retention of fluorescently labeled peptide; settings: 5 µM Alexa-488 labeled peptide, mass ratios 3:1 to 1:20 peptide:polymer, 30 min, flow cytometry
Experimental: as §1, §2
Cell culture medium containing the polymer treatment was then aspirated, and cells were subsequently treated with fluorescent peptide or vivo-morpholino alone for 30 min.
HCAVSMCs were seeded and treated for 30 min as noted above.

HCAVSMCs = assay: Inhibitor uptake studies; type: cell-based, human; settings: for effect of inhibitor during PPAA pretreatment only on subsequent YARA-MK2i peptide uptake: no inhibitor present during peptide treatment; for inhibition at 0.1 µM / inhibition at 100 µM: Homo sapiens
[3] = test system: Luciferase expressing A7r5 cells; assay: Luciferase gene-silencing assay; type: cell-based, rat; settings: sequentially delivered 25 nM siRNA as peptide-siRNA polyplexes
Experimental: Luciferase expressing A7r5 cells were seeded in a black, clear bottom 96-well plate at a density of 10,000 cells/well in DMEM containing 10% FBS and 1% P/S and allowed to adhere overnight. D-DPB NPs, PepFect-siRNA polyplexes, and CADY-siRNA polyplexes were formulated and loaded with luciferase or scrambled siRNA as noted above. […] Luciferase gene silencing was calculated compared with cells treated with an equivalent dose of scrambled siRNA loaded into D-DPB NPs as a control.

HEK 293-T LgBiT cells = assay: NanoLuc luciferase intracellular bioavailability assay; type: cell-based, human; settings: sequential delivery of 5 µM PPAA followed by 0.5 or 1 µM YARA-HiBiT, 30 min each; 6 h incubation
Experimental: HEK 293-T LgBiT cells were seeded into a collagen-coated 96-well plate in DMEM with 10% FBS and 1% P/S and allowed to incubate for 24 h. […] The treatment was then removed and cells were incubated in 10% FBS media for 6 h. Prior to reading, the TECAN Infinite M1000 Pro plate reader was warmed to 37 °C. The cells were treated with 1 μM DrkBiT for 2 min, after which the NanoLuc substrate was added. The plate was immediately read on the plate reader in a kinetic luminescence cycle for 20 min. Peak luminescence data points were calculated by taking the average of the five readings at the peak of the kinetic curve.

HMVECs = assay: Vivo-morpholino colocalization with LysoTracker Red; type: cell-based, human; settings: delivery with either 2.5 or 5 µM PPAA, 5 µM vivo-morpholino
Experimental: HMVECs were seeded into Lab-Tek II 8-well chambered coverslips at a density of 10,000 cells/well and incubated overnight. […] Lysotracker staining, imaging of cells, and image processing was carried out as noted above in the peptide endosomal escape experiment.

[4] = read-out: inhibition of YARA-MK2i peptide uptake, co-delivery with 5 µM PPAA, inhibitor (100 nM wortmannin, 100 µM dynasore) 30 min pretreatment and throughout treatment
[5] = read-out: inhibition of YARA-MK2i peptide uptake, sequential delivery, 5 µM PPAA then peptide, inhibitor (100 nM wortmannin, 100 µM dynasore) 30 min pretreatment and throughout treatment

YARAAARQARAKALARQLGVAA [YARA-MK2i]
fold increase in uptake of the YARA-MK2i peptide [1]: 10–30 fold

RQIKIWFQNRRMKWKKKALARQLGVAA [Penetratin-MK2i]
effect of co-delivery with PPAA (pre-complexed NPs) on peptide uptake [2]: did not display significant PPAA-mediated enhancement of uptake with co-delivery

Methyl-β-cyclodextrin
effect of inhibitor during PPAA pretreatment only on subsequent YARA-MK2i peptide uptake (HCAVSMCs): Neither methyl-β-cyclodextrin nor dextran sulfate addition during PPAA pretreatment had any effects on subsequent peptide uptake

Ac-GLWRALWRLLRSLWRLLWRA-cya (Ac-GLWRALWRLLRSLWRLLWRA-cysteamide) [CADY, secondary amphipathic CPP, nucleic acid delivery vector]
effect of PPAA pretreatment on gene-silencing activity of siRNA polyplexes [3]: enhanced the gene-silencing activity

YARAAARQARA-HiBiT [YARA-HiBiT, YARA CPP fused to the HiBiT peptide of the NanoLuc platform]
intracellular delivery (NanoLuc luminescence) (HEK 293-T LgBiT cells): significantly enhanced intracellular delivery

COC[C@H]1OC(=O)c2coc3c2[C@@]1(C)C1=C(C3=O)[C@@H]2CCC(=O)[C@@]2(C)C[C@H]1OC(C)=O [wortmannin, Wortmannin]
inhibition at 0.1 µM (HCAVSMCs; [4]): ~69% | inhibition at 0.1 µM (HCAVSMCs; [5]): ~89% | effect of inhibitor during PPAA pretreatment only on subsequent YARA-MK2i peptide uptake (HCAVSMCs): significantly reduced subsequent peptide uptake

YARAAARQARA-KLRKVSpK [YARA-VASP]
effect of co-delivery with PPAA (pre-complexed NPs) on peptide uptake [2]: Very similar trends in PPAA dose-dependent uptake

RRRRRRKALARQLGVAA [R6-MK2i]
effect of co-delivery with PPAA (pre-complexed NPs) on peptide uptake [2]: consistently increased peptide uptake

CD47 vivo-morpholino: phosphorodiamidite morpholino oligomer conjugated to a cationic octa-guanidine dendrimer; 5′-CGTCACAGGCAGGACCCACTGCCCA (all phosphorodiamidate morpholino (PMO); octa-guanidine dendrimer conjugated, position not given here, further chemistry not fully specified)
colocalization with the endolysosomal dye LysoTracker Red (HMVECs): significantly reduced CD47 vivo-morpholino colocalization

Stearyl-AGYLLGKLLOOLAAAALOOLL [PepFect, stearylated, secondary amphipathic CPP, nucleic acid delivery vector]
effect of PPAA pretreatment on gene-silencing activity of siRNA polyplexes [3]: enhanced the gene-silencing activity

Dextran sulfate
effect of inhibitor during PPAA pretreatment only on subsequent YARA-MK2i peptide uptake (HCAVSMCs): Neither methyl-β-cyclodextrin nor dextran sulfate addition during PPAA pretreatment had any effects on subsequent peptide uptake

O=C(N/N=C/c1ccc(O)c(O)c1)c1cc2ccccc2cc1O [dynasore, Dynasore]
effect on uptake of fluorescent PPAA polymer (without peptide) (HCAVSMCs; 0-200 µM dynasore, 30 min pretreatment, rhodamine labeled PPAA): dose-dependently inhibited internalization | inhibition at 100 µM (HCAVSMCs; [4]): ~30% | inhibition at 100 µM (HCAVSMCs; [5]): ~44% | effect of inhibitor during PPAA pretreatment only on subsequent YARA-MK2i peptide uptake (HCAVSMCs): dose-dependent increase in subsequent YARA-MK2i peptide internalization

GRKKRRQRRRPPQKALARQLGVAA [TAT-MK2i]
effect of co-delivery with PPAA (pre-complexed NPs) on peptide uptake [2]: consistently increased peptide uptake

KLRKVSpK [VASP (no CPP)]
effect of co-delivery with PPAA (pre-complexed NPs) on peptide uptake [2]: no polymer effect on uptake
